The source made the active and inactive calls. The rule behind the calls is not given here.
Assays:
[1] = molecular target: Dipeptidyl peptidase 8 (Homo sapiens, UniProt Q6V1X1); test: Inhibition of DPP8 (unknown origin) using Gly-Pro-AMC as substrate preincubated for 15 mins followed by substrate addition measured at 60 secs interval for 20 mins by fluorometic method
[2] = molecular target: Dipeptidyl peptidase 9 (Homo sapiens, UniProt Q86TI2); test: Inhibition of DPP9 (unknown origin) using Gly-Pro-AMC as substrate preincubated for 15 mins followed by substrate addition measured at 60 secs interval for 20 mins by fluorometic method
[3] = Stability in PBS at pH 7.4 assessed as compound remaining at 1 uM after 120 mins by LC-MS/MS analysis relative to control; assay type: physicochemical; details: read-out: Stability
[4] = Stability in Sprague-Dawley rat plasma assessed as compound remaining at 1 uM measured up to 120 mins by LC-MS/MS analysis relative to control; assay type: ADME, cell-free; details: read-out: Stability
[5] = Cytotoxicity against human LO2 cells assessed as cell viability at 20 uM after 48 hrs by MTT assay; assay type: cell-based, L02; details: read-out: Activity
[6] = test system: Rattus norvegicus; test: Anti-diabetic activity in Sprague-Dawley rat assessed as redcution in DPP4 inhibition in plasma at 10 mg/kg, po via gavage administered as single dose measured up to 12 hrs post dose by fluorometric assay relative to control; details: read-out: INH
[7] = test system: Rattus norvegicus; test: Anti-diabetic activity in Sprague-Dawley rat assessed as redcution in DPP4 inhibition in plasma at 10 mg/kg, po via gavage administered as single dose measured after 12 hrs post dose by fluorometric assay; assay type: functional, organism-based
[8] = Half life in Sprague-Dawley rat at 10 mg/kg, po via gavage after 48 hrs by LC-MS/MS analysis; assay type: ADME, organism-based; details: in vivo
[9] = Half life in Sprague-Dawley rat assessed as (R)-2-((8-(3-aminopiperidin-1-yl)-7-(but-2-yn-1-yl)-3-methyl-2,6-dioxo-2,3,6,7-tetrahydro-1H-purin-1-yl)methyl)-5-chlorobenzoic acid level at 10 mg/kg, po via gavage after 48 hrs by LC-MS/MS analysis; assay type: ADME, organism-based; details: in vivo
[10] = Tmax in Sprague-Dawley rat at 10 mg/kg, po via gavage after 48 hrs by LC-MS/MS analysis; assay type: ADME, organism-based; details: in vivo
[11] = Tmax in Sprague-Dawley rat assessed as (R)-2-((8-(3-aminopiperidin-1-yl)-7-(but-2-yn-1-yl)-3-methyl-2,6-dioxo-2,3,6,7-tetrahydro-1H-purin-1-yl)methyl)-5-chlorobenzoic acid level at 10 mg/kg, po via gavage after 48 hrs by LC-MS/MS analysis; assay type: ADME, organism-based; details: in vivo
[12] = Cmax in Sprague-Dawley rat at 10 mg/kg, po via gavage after 48 hrs by LC-MS/MS analysis; assay type: ADME, organism-based; design: dose 10 mg/kg, route oral; details: in vivo
[13] = Cmax in Sprague-Dawley rat assessed as (R)-2-((8-(3-aminopiperidin-1-yl)-7-(but-2-yn-1-yl)-3-methyl-2,6-dioxo-2,3,6,7-tetrahydro-1H-purin-1-yl)methyl)-5-chlorobenzoic acid level at 10 mg/kg, po via gavage after 48 hrs by LC-MS/MS analysis; assay type: ADME, organism-based; design: dose 10 mg/kg, route oral; details: in vivo
[14] = AUC (0 to infinity) in Sprague-Dawley rat at 10 mg/kg, po via gavage after 48 hrs by LC-MS/MS analysis; assay type: ADME, organism-based; design: dose 10 mg/kg, route oral, time infinity; details: in vivo
[15] = AUC (0 to infinity) in Sprague-Dawley rat assessed as (R)-2-((8-(3-aminopiperidin-1-yl)-7-(but-2-yn-1-yl)-3-methyl-2,6-dioxo-2,3,6,7-tetrahydro-1H-purin-1-yl)methyl)-5-chlorobenzoic acid level at 10 mg/kg, po via gavage after 48 hrs by LC-MS/MS analysis; assay type: ADME, organism-based; design: dose 10 mg/kg, route oral, time infinity; details: in vivo
[16] = Clearance in Sprague-Dawley rat at 10 mg/kg, po via gavage after 48 hrs by LC-MS/MS analysis; assay type: ADME, organism-based; details: in vivo
[17] = Clearance in Sprague-Dawley rat assessed as (R)-2-((8-(3-aminopiperidin-1-yl)-7-(but-2-yn-1-yl)-3-methyl-2,6-dioxo-2,3,6,7-tetrahydro-1H-purin-1-yl)methyl)-5-chlorobenzoic acid level at 10 mg/kg, po via gavage after 48 hrs by LC-MS/MS analysis; assay type: ADME, organism-based; details: in vivo
[18] = Oral bioavailability in Sprague-Dawley rat assessed as (R)-2-((8-(3-aminopiperidin-1-yl)-7-(but-2-yn-1-yl)-3-methyl-2,6-dioxo-2,3,6,7-tetrahydro-1H-purin-1-yl)methyl)-5-chlorobenzoic acid level at 10 mg/kg via gavage after 48 hrs by LC-MS/MS analysis; assay type: ADME, organism-based; details: in vivo
[19] = Half life in Sprague-Dawley rat at 5 mg/kg, iv measured after 48 hrs by LC-MS/MS analysis; assay type: ADME, organism-based; details: in vivo
[20] = Cmax in Sprague-Dawley rat at 5 mg/kg, iv measured after 48 hrs by LC-MS/MS analysis; assay type: ADME, organism-based; design: dose 5 mg/kg, route intravenous; details: in vivo
[21] = AUC (0 to infinity) in Sprague-Dawley rat at 5 mg/kg, iv measured after 48 hrs by LC-MS/MS analysis; assay type: ADME, organism-based; design: dose 5 mg/kg, route intravenous, time infinity; details: in vivo
[22] = Clearance in Sprague-Dawley rat at 5 mg/kg, iv measured after 48 hrs by LC-MS/MS analysis; assay type: ADME, organism-based; details: in vivo
[23] = Oral bioavailability in Sprague-Dawley rat at 10 mg/kg via gavage after 48 hrs by LC-MS/MS analysis; assay type: ADME, organism-based; details: in vivo
[24] = Cytotoxicity against human LO2 cells assessed as cell viability at 50 uM after 48 hrs by MTT assay; assay type: cell-based, L02; details: read-out: Activity
[25] = test system: Mus musculus; test: Anti-diabetic activity in 12 hrs-fasted ICR mouse assessed as reduction in blood glucose AUC (0 to 120 mins)at 10 mg/kg, po pretreated for 60 mins followed by glucose challenge and measured after 120 mins post glucose challenge by OGTT relative to control; assay type: functional; design: scale not given: the % may be the effect or the level left
[26] = organism: Rattus norvegicus; test: animal or person; details: Sprague-Dawley, po, 2 h, read-out: INH
Description: Anti-diabetic activity in Sprague-Dawley rat assessed as redcution in DPP4 inhibition in plasma at 10 mg/kg, po via gavage administered as single dose measured at 2 hrs post dose by fluorometric assay relative to control

[27] = Stability in Sprague-Dawley rat plasma assessed as drug degradation at 1 uM after 5 mins by LC-MS/MS analysis relative to control relative to control; assay type: ADME, cell-free; details: read-out: Drug degradation
[28] = Stability in Sprague-Dawley rat plasma assessed as drug degradation at 1 uM after 120 mins by LC-MS/MS analysis relative to control relative to control; assay type: ADME, cell-free; details: read-out: Drug degradation
[29] = Drug degradation in PBS at pH 7.4 at 1 uM after 120 mins by LC-MS/MS analysis relative to control; assay type: physicochemical; details: read-out: Drug degradation
[30] = Cytotoxicity against human LO2 cells assessed as cell viability at 10 uM after 48 hrs by MTT assay; assay type: cell-based, L02; details: read-out: Activity

Sequence of Dipeptidyl peptidase 9 (Q86TI2 whole entry): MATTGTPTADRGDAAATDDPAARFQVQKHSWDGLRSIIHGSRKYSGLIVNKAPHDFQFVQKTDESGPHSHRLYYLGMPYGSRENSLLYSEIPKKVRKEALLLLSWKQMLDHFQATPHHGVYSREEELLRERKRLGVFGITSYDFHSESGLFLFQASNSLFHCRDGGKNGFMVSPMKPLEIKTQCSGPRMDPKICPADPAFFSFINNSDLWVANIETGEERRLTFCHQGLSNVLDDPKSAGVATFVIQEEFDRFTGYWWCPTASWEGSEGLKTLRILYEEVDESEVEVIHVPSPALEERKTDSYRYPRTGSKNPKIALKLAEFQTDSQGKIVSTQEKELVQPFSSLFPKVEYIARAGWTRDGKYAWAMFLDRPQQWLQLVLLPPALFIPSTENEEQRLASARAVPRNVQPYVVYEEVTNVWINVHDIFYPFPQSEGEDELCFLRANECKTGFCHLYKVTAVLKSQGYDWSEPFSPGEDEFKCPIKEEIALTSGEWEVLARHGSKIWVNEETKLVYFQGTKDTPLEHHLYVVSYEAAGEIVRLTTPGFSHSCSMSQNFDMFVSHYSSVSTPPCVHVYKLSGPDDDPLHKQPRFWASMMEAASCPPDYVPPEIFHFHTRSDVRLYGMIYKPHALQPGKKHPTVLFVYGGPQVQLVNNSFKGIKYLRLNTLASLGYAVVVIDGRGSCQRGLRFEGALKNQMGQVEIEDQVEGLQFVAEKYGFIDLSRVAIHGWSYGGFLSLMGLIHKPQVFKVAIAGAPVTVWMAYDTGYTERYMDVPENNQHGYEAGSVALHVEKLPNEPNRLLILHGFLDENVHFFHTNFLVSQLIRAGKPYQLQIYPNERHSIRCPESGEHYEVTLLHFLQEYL
Sequence of Dipeptidyl peptidase 8 (Q6V1X1 whole entry): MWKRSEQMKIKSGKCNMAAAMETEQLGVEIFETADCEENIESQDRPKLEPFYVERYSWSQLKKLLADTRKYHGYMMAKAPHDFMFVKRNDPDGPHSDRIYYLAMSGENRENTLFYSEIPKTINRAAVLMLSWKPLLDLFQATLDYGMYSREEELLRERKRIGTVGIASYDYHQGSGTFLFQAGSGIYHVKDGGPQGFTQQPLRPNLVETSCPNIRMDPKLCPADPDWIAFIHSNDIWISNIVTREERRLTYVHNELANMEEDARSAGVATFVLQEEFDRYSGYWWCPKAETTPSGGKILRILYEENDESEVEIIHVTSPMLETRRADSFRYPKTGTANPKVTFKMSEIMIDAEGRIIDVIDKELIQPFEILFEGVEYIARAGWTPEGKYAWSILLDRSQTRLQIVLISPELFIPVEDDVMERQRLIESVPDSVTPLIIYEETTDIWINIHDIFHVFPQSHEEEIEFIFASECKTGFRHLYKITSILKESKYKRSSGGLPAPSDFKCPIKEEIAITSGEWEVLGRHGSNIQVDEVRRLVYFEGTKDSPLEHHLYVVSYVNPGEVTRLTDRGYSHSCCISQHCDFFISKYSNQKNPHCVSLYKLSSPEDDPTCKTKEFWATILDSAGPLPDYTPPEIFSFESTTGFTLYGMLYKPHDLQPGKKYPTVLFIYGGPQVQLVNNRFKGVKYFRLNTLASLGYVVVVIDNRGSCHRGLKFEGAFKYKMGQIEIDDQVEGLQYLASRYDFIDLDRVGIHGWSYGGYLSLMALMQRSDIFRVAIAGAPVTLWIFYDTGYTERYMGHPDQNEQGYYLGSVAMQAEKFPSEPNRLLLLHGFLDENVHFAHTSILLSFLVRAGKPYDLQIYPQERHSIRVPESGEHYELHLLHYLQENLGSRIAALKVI

| Structure (SMILES) | IC50 [1] | IC50 [2] | remaining at 2 h, 1 µM [3] | remaining at 2 h, 1 µM [4] | half-life [19] | Cmax [20] | AUC(0-inf) [21] | clearance [22] | also measured |
| --- | --- | --- | --- | --- | --- | --- | --- | --- | --- |
| CC#CCn1c(N2CCC[C@@H](N)C2)nc2c1c(=O)n(Cc1ccc(Cl)cc1C(=O)OCC)c(=O)n2C | > 100 µM | > 100 µM | 99.5% | 70.2% | – | – | – | – | viability at 48 h, 20 µM [5]: 80%; inhibition in vivo at 10 mg/kg [6]: > 80%; Activity [7]: Active; half-life [8]: 8.02 h; t1/2 [9]: 6.97 h; Tmax [10]: 0.5 h; Tmax [11]: 0.5 h; Cmax [12]: 508 ng/mL; Cmax [13]: 401.06 ng/mL; AUC [14]: 4536.25 ng·h/mL; AUC [15]: 3001.17 ng·h/mL; CL [16]: 3.83 mL/min/kg; CL [17]: 5.83 mL/min/kg; F [18]: 15.6% |
| CC#CCn1c(N2CCC[C@@H](N)C2)nc2c1c(=O)n(Cc1cc(Br)ccc1C(=O)O)c(=O)n2C | > 100 µM | > 100 µM | – | – | – | – | – | – | – |
| CC#CCn1c(N2CCC[C@@H](N)C2)nc2c1c(=O)n(Cc1cc(Cl)ccc1C(=O)OC)c(=O)n2C | > 100 µM | > 100 µM | – | – | – | – | – | – | – |
| CC#CCn1c(N2CCC[C@@H](N)C2)nc2c1c(=O)n(Cc1cc(Cl)ccc1C(=O)O)c(=O)n2C | > 100 µM | > 100 µM | – | – | 0.82 h | 14600 ng/mL | 4860 ng·h/mL | 17.2 mL/min/kg | – |
| CC#CCn1c(N2CCC[C@@H](N)C2)nc2c1c(=O)n(Cc1ccc(Cl)cc1C(=O)O)c(=O)n2C | > 100 µM | > 100 µM | 101% | 102% | 5.24 h | 30600 ng/mL | 9620 ng·h/mL | 8.83 mL/min/kg | bioavailability [23]: 6.76%; viability at 48 h, 50 µM [24]: > 90%; Activity [25]: 14.3%; half-life [8]: 1.77 h; Tmax [10]: 0.17 h; Cmax [12]: 2340 ng/mL; AUC [14]: 1301.87 ng·h/mL; CL [16]: 13.7 mL/min/kg; inhibition in vivo at 10 mg/kg [26]: > 80% |
| CC#CCn1c(N2CCC[C@@H](N)C2)nc2c1c(=O)n(Cc1c(Cl)cccc1C(=O)O)c(=O)n2C | > 100 µM | > 100 µM | – | – | – | – | – | – | – |
| CC#CCn1c(N2CCC[C@@H](N)C2)nc2c1c(=O)n(Cc1c(OC)cccc1C(=O)O)c(=O)n2C | > 100 µM | > 100 µM | – | – | – | – | – | – | – |
| CC#CCn1c(N2CCC[C@@H](N)C2)nc2c1c(=O)n(Cc1ccc(Br)cc1C(=O)O)c(=O)n2C | > 100 µM | > 100 µM | 99.2% | 98.3% | 5.75 h | 65500 ng/mL | 23500 ng·h/mL | 3.67 mL/min/kg | bioavailability [23]: < 7%; viability at 48 h, 50 µM [24]: > 90% |
| CC#CCn1c(N2CCC[C@@H](N)C2)nc2c1c(=O)n(Cc1cc(C#N)ccc1C(=O)O)c(=O)n2C | > 100 µM | > 100 µM | – | – | – | – | – | – | – |
| CC#CCn1c(N2CCC[C@@H](N)C2)nc2c1c(=O)n(Cc1cc(OC)ccc1C(=O)O)c(=O)n2C | > 100 µM | > 100 µM | – | – | 0.26 h | 12200 ng/mL | 3930 ng·h/mL | 21.7 mL/min/kg | – |
| CC#CCn1c(N2CCC[C@@H](N)C2)nc2c1c(=O)n(Cc1ccc(Cl)cc1C(=O)OCc1oc(=O)oc1C)c(=O)n2C | – | – | 12% | 1.25% | – | – | – | – | metabolised at 5 min, 1 µM [27]: 50%; metabolised at 2 h, 1 µM [28]: 100%; degraded at 2 h, 1 µM [29]: 100% |
| COc1cccc2c1C(=O)c1c(O)c3c(c(O)c1C2=O)C[C@@](O)(C(=O)CO)C[C@@H]3O[C@H]1C[C@H](N)[C@H](O)[C@H](C)O1 [DOXORUBICIN] | – | – | – | – | – | – | – | – | viability at 48 h, 10 µM [30]: 35% |

Source: ChEMBL document CHEMBL4364319 (Eur J Med Chem, 2019)
